Assay results reported in US20070232492A1, “Herbicidal Composition” (Ishihara Sangyo Kaisha, LTD., priority 2004, published 2007).
Like-named read-outs stand apart in the source and are kept apart here.

Experiments:
Assay type in all cases: in vivo
[1] = system: rice (Oryza sativa var. Nihonbare); test: Growth inhibition (phytotoxicity) of transplanted rice by compound A2 with or without compound D, application under submerged condition, visual rating 7 and 21 days after application; details: Compound A2 60 g/ha + Compound D 600 g/ha, applied 5 days after implantation; for Growth inhibition rate (%) (average) 7 days: 7 days after application; for Growth inhibition rate (%) (average) 21 days: 21 days after application
Text: (§1) Growth inhibition rate (%)=0% (equivalent to the non-treated area) to 100% (complete kill)
Paddy field soil was put into a 1/500,000 hectare pot, harrowed and irrigated with a depth of 3 cm. On the next day, rice (Oryza sativa var. Nihonbare) at 2 leaf stage was implanted with a depth of 3 cm. A wettable powder of compound A2 and a wettable powder of compound D were, respectively, diluted with water and applied under submerged condition 5 days after implantation so that the active ingredients became the prescribed amounts, respectively. The state of growth of rice was visually observed 7 days and 21 days after application, and the growth inhibition rate (%) was evaluated in the same is manner as in the above Test Example 1.

[2] = system: barnyardgrass (Echinochloa oryzicola vasing); test: Growth inhibition of barnyardgrass in paddy soil pots, foliar application with a small sprayer, visual rating and Colby expected value; details: Echinochloa oryzicola, 504 h, 3.0 to 3.3 leaf stage, 21 days after application, read-out: Growth inhibition rate (%) Observed
Text: (§2) When the herbicidal activity in a case where two active ingredients are combined, is larger than the simple sum of the respective herbicidal activities of the two active ingredients (the expected activity), it is called a synergistic effect. The activity expected by the combination of two active ingredients can be calculated as follows (Colby S. R., “Weed”, vol. 15, p. 20-22, 1967). E=p+q−(p×q÷100) where p: growth inhibition rate when treated with x (g/a) of herbicide X,
(§3) q: growth inhibition rate when treated with y (g/a) of herbicide Y,
(§4) E: growth inhibition rate expected when treated with x (g/a) of herbicide X and y (g/a) of herbicide Y.
(§5) Namely, when the actual growth inhibition rate (observed value) is larger than the growth inhibition rate by the above calculation (expected value), the activity by the combination can be regarded as showing a synergistic effect.
as §1
Paddy field soil was put into a 1/10,000 are pot, and seeds of barnyardgrass (Echinochloa oryzicola vasing) were sown and left to stand under an irrigated condition with a water depth of 3.5 cm. When barnyardgrass reached 3.0 to 3.3 leaf stage, a wettable powder of compound A2 and a water-based suspension of compound (B11.1) were, respectively, diluted with water in an amount of 1,000 liter/ha, followed by foliar application with a small sprayer. The state of growth was visually observed 21 days after application, and evaluation and calculation were carried out in the same manner as in the above Test Example 1.

[3] = system: flatsedge (Cyperus serotinus); test: Growth inhibition of flatsedge (planted tubers) in paddy soil pots, application under submerged condition, visual rating and Colby expected value; details: Cyperus serotinus, soil, 720 h, 2.5 to 3.0 leaf stage, 30 days after application, Test Examples 46-60, read-out: Growth inhibition rate (%) Observed
Text: as §2, §3, §4, §5, §1
(§6) Paddy field soil was put into a 1/10,000 are pot, and tubers of flatsedge (Cyperus serotinus) were planted and left to stand under an irrigated condition with a water depth of 3.5 cm. When flatsedge reached 2.8 to 3.2 leaf stage, wettable powders of compound A2 and compound (B1.2) were, respectively, diluted with water and applied under submerged condition so that the active ingredients became the prescribed amounts, respectively. The state of growth was visually observed 29 days after application, and evaluation and calculation were carried out in the same manner as in the above Test Example 1.
Paddy field soil was put into a 1/3,000 are pot, and tubers of flatsedge (Cyperus serotinus) were planted and left to stand under an irrigated condition with a water depth of 3.5 cm. When flatsedge reached 4 leaf stage, a wettable powder of compound A2 and an emulsifiable concentrate of compound C4 were, respectively, diluted with water and applied under submerged condition so that the active ingredients became the prescribed amounts, respectively. The state of growth was visually observed 21 days after application, and the growth inhibition rate (%) evaluated in the same manner as in the above Test Example 1 (observed value) and the growth inhibition rate (%) calculated by the above-mentioned Colby method (expected value) are shown in Table 32.
as §6, with “2.5” for “2.8”, “3.0” for “3.2”, “A2, compound (D2.3)” for “A2”, “(B4.1)” for “(B1.2)”, “30” for “29”, “evaluated” for “evaluation and calculation were carried out”
as §6, with “2.5” for “2.8”, “3.0” for “3.2”, “A2, compound (D2.3)” for “A2”, “(B6.1)” for “(B1.2)”, “30” for “29”, “evaluated” for “evaluation and calculation were carried out”
Paddy field soil was put into a 1/10,000 are pot, and tubers of flatsedge (Cyperus serotinus) were planted and left to stand under an irrigated condition with a water depth of 3.5 cm. When flatsedge reached 2.5 to 3.0 leaf stage, wettable powders of compound A2, compound (D2.3) and compound (B8.1) were, respectively, diluted with water and applied under submerged condition so that the active ingredients became the prescribed amounts, respectively. […]

[4] = system: barnyardgrass (Echinochloa oryzicola vasing); test: Growth inhibition of barnyardgrass in paddy soil pots, application under submerged condition, visual rating (observed value) and Colby expected value; details: Echinochloa oryzicola, soil, read-out: Growth inhibition rate (%) Observed
Procedure, shortened: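 Barnyardgrass (Echinochloa oryzicola vasing) seeds were sown in paddy field soil in 1/10,000 are pots and kept irrigated at a water depth of 3.5 cm. Wettable powders of the active ingredients were diluted with water and applied under submerged conditions at the prescribed amounts. Growth was visually scored from 0% (as untreated) to 100% (complete kill), and expected values were calculated with Colby's formula.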

[5] = system: Japanese bulrush (Scirpus juncoides); test: Growth inhibition of Japanese bulrush in paddy soil pots, application under submerged condition, visual rating and Colby expected value; details: Schoenoplectiella juncoides, soil, 456 h, 3 leaf stage, 19 days after application, Test Example 37, read-out: Growth inhibition rate (%) Observed
Text: as §2, §3, §4, §5, §1
(§7) Paddy field soil was put into a 1/10,000 are pot, and seeds of Japanese bulrush (Scirpus juncoides) were sown and left to stand under an irrigated condition with a water depth of 3.5 cm. When Japanese bulrush reached 2.3 to 2.6 leaf stage, a wettable powder of compound A2 and granules of compound (B7.1) were, respectively, diluted with water and applied under submerged condition so that the active ingredients became the prescribed amounts, respectively. The state of growth was visually observed 10 days after application, and evaluation and calculation were carried out in the same manner as in the above Test Example 1.
as §7, with “an emulsifiable concentrate” for “granules”, “(B3.1)” for “(B7.1)”
(§8) Paddy field soil was put into a 1/10,000 are pot, and seeds of Japanese bulrush (Scirpus juncoides) were sown and left to stand under an irrigated condition with a water depth of 3.5 cm. When Japanese bulrush reached 2 leaf stage, wettable powders of compound A2, C2 and C4 and granules of compound C6 were, respectively, diluted with water and applied under submerged condition so that the active ingredients became the prescribed amounts, respectively.
Paddy field soil was put into a 1/10,000 are pot, and seeds of Japanese bulrush (Scirpus juncoides) were sown and left to stand under an irrigated condition with a water depth of 3.5 cm. When Japanese bulrush reached 2 leaf stage, wettable powders of compound A2, C2 and C4 and granules of compound C6 were, respectively, diluted with water and applied under submerged condition so that the active ingredients became the prescribed amounts, respectively. The state of growth was visually observed 19 days after application, and the growth inhibition rate (%) evaluated in the same manner as in the above Test Example 1 (observed value) and the growth inhibition rate (%) calculated by the above-mentioned Colby method (expected value) are shown in Tables 36, 37 and 38.
as §8, with “3” for “2”, “A2” for “A2, C2”, “and” for “and C4 and granules of”, “(D2.2)” for “C6”, “respectively. […]” for “respectively.”

CC(C)(SC(=O)N1CCCCC1)c1ccccc1 [(D2.1), S-1-methyl-1-phenylethyl piperidine-1-carbothioate]
Growth inhibition rate (%) (average) 7 days [1]: 5%
Growth inhibition rate (%) (average) 21 days [1]: 10%

COc1cnc(OC)n2nc(NS(=O)(=O)c3c(OCC(F)F)cccc3C(F)(F)F)nc12 [Compound (B11.1), penoxsulam]
inhibition at 4.7 g/ha ([2]; 0.047 g/a): 10%
inhibition at 9.4 g/ha ([2]; 0.094 g/a): 47%
inhibition at 18.8 g/ha ([2]; 0.188 g/a): 80%

Cc1ccc(NC(=O)NC(C)(C)c2ccccc2)cc1 [Compound (D1.1), 1-(1-methyl-1-phenylethyl)-3-p-tolylurea]
Growth inhibition rate (%) (average) 7 days [1]: 2%
Growth inhibition rate (%) (average) 21 days [1]: 10%
inhibition at 1500 g/ha ([3]; 15 g/a): 20%
inhibition at 563 g/ha ([4]; 528 h, 563 g/ha, 3 leaf stage, 22 days after application, Test Example 36): 0%
inhibition at 1125 g/ha ([4]; 528 h, 1,125 g/ha, 3 leaf stage, 22 days after application, Test Example 36): 10%

CCSC(=O)N1CCCCCC1 [Compound (D2.2), S-ethyl azepane-1-carbothioate]
Growth inhibition rate (%) (average) 7 days [1]: 7%
Growth inhibition rate (%) (average) 21 days [1]: 17%
inhibition at 900 g/ha ([5]; 900 g/ha): 60%
inhibition at 1800 g/ha ([5]; 1,800 g/ha): 60%

COc1cccc(N(C)C(=S)Oc2cccc(C(C)(C)C)c2)n1 [Compound (D2.3), O-3-tert-butylphenyl 6-methoxy-2-pyridyl(methyl)thiocarbamate]
Growth inhibition rate (%) (average) 7 days [1]: 3%
Growth inhibition rate (%) (average) 21 days [1]: 5%
inhibition at 600 g/ha ([3]; 6 g/a): 20%
inhibition at 188 g/ha ([4]; 504 h, 1.88 g/a, 2.8 to 3.2 leaf stage, 21 days after application, Test Examples 39-43): 0%
inhibition at 375 g/ha ([4]; 504 h, 3.75 g/a, 2.8 to 3.2 leaf stage, 21 days after application, Test Examples 39-43): 0%
inhibition at 188 g/ha ([4]; 528 h, 188 g/ha, 3 leaf stage, 22 days after application, Test Example 38): 3%
inhibition at 375 g/ha ([4]; 528 h, 375 g/ha, 3 leaf stage, 22 days after application, Test Example 38): 7%
